Activity calls are given as the source filed them. The calls are words filed in the database; no cut-off is given here.
Key:
[1] = target: T1, Ribonuclease pancreatic (Bos taurus) (UniProt P61823); experiment: Binding affinity to bovine RNase A in PBS buffer assessed as melting temperature at 1 uM after 3 hrs by UV spectroscopy (reference value: 62.7 +/- 0.1 degC)
T1 sequence (whole entry): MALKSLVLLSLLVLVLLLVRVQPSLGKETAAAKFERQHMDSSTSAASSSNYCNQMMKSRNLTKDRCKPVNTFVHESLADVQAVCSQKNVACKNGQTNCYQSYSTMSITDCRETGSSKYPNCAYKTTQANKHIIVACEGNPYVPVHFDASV

[2] = target: T1, Ribonuclease pancreatic (Bos taurus); experiment: Induction of bovine RNaseA internalization in human K562 cells assessed as internalization count at 1 uM after 3 hrs by flow cytometry; assay type: cell-based
K562 [3] = experiment: Potentiation of bovine RNase-A G88R mutant-induced cytotoxicity against human K562 cells assessed as incorporation of [methyl-3H]-thymidine into cellular DNA at 10 uM after 4 hrs by liquid scintillation counting; assay type: functional
[4] = target: T1, Ribonuclease pancreatic (Bos taurus); experiment: Effect on bovine RNase A ribonucleolytic activity assessed as kcat/KM ratio of 6-FAM-dArUdAdA-6-TAMRA at 1 uM by fluorescence assay
Ribonuclease pancreatic = target: T2, Ribonuclease pancreatic (Bos taurus, UniProt P61823); experiment: Inhibition of bovine RNase A interaction to ribonuclease inhibitor protein after 30 mins by competition assay
T2 sequence (P61823 whole entry): T1 sequence (whole entry)

[5] = target: T1, Ribonuclease pancreatic (Bos taurus); experiment: Binding affinity to bovine RNase A in PBS assessed as melting temperature at 10 uM after 3 hrs by UV spectroscopy (reference value: 62.7 +/- 0.1 degC)
[6] = target: T1, Ribonuclease pancreatic (Bos taurus); experiment: Induction of bovine RNaseA internalization in human K562 cells assessed as internalization count at 10 uM after 3 hrs by flow cytometry; assay type: cell-based
K562 [7] = experiment: Potentiation of bovine RNase-A DRNG mutant-induced cytotoxicity against human K562 cells assessed as incorporation of [methyl-3H]-thymidine into cellular DNA at 10 uM after 4 hrs by liquid scintillation counting; assay type: functional
K562 [8] = experiment: Potentiation of bovine wild type RNase-A-induced cytotoxicity against human K562 cells assessed as incorporation of [methyl-3H]-thymidine into cellular DNA at 1 to 10 uM after 4 hrs by liquid scintillation counting; assay type: functional, cell-based
[9] = target: T1, Ribonuclease pancreatic (Bos taurus); experiment: Effect on bovine RNase A ribonucleolytic activity assessed as kcat/KM ratio of 6-FAM-dArUdAdA-6-TAMRA at 10 uM by fluorescence assay

## NCCNC(=O)CCN(CCNC(=O)CCN(CCNC(=O)CCN(CCC(=O)NCCN(CCC(=O)NCCN(CCC(=O)NCCN)CCC(=O)NCCN)CCC(=O)NCCN(CCC(=O)NCCN)CCC(=O)NCCN)CCN(CCC(=O)NCCN(CCC(=O)NCCN(CCC(=O)NCCN)CCC(=O)NCCN)CCC(=O)NCCN(CCC(=O)NCCN)CCC(=O)NCCN)CCC(=O)NCCN(CCC(=O)NCCN(CCC(=O)NCCN)CCC(=O)NCCN)CCC(=O)NCCN(CCC(=O)NCCN)CCC(=O)NCCN)CCC(=O)NCCN(CCC(=O)NCCN)CCC(=O)NCCN)CCC(=O)NCCN [POLY(AMIDOAMINE)DENDRIMER]
[1]
  Tm: 62.8 °C
[2]
  Activity: inactive
K562 [3]
  fold change (FC): 5
[4]
  Activity: inactive
Ribonuclease pancreatic
  Kd: 3.1 µM
[5]
  Tm: 63.2 °C
[6]
  Activity: inactive
K562 [7]
  fold change (FC): 5
K562 [8]
  Activity: inactive
[9]
  Activity: inactive

From ChEMBL document CHEMBL2146459, “Potentiation of ribonuclease cytotoxicity by a poly(amidoamine) dendrimer” (Bioorg Med Chem Lett, 2011)
